# Experimental data published in patent publication US10233191B2, “Fused piperidine amides as modulators of ion channels” (Vertex Pharmaceuticals Incorporated, priority 2013, dated 2019).
# Biological target: T1, NaV 1.7 (Homo sapiens, UniProt Q15858)
# T1 construct: expressed in transfected cells; host or cells: HEK cells
# Assay: E-VIPR optical membrane potential assay with electrical stimulation
# Format: cell-based
# Settings: active against one or more sodium channels; assay/subtype not specified in Table 4; read-out: IC50 Binned Activity Data
# Method in brief: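 HEK cells expressing human NaV1.7, loaded with CC2-DMPE/DiSBAC6(3) FRET dyes, then exposed to compounds for 20-35 min at room temperature (0.625% DMSO). Electrical stimulation applied for 9 s with 400 Hz scanning. Read-out is the background-subtracted 460/580 nm emission ratio, normalized.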
# T1 sequence (Q15858 whole entry): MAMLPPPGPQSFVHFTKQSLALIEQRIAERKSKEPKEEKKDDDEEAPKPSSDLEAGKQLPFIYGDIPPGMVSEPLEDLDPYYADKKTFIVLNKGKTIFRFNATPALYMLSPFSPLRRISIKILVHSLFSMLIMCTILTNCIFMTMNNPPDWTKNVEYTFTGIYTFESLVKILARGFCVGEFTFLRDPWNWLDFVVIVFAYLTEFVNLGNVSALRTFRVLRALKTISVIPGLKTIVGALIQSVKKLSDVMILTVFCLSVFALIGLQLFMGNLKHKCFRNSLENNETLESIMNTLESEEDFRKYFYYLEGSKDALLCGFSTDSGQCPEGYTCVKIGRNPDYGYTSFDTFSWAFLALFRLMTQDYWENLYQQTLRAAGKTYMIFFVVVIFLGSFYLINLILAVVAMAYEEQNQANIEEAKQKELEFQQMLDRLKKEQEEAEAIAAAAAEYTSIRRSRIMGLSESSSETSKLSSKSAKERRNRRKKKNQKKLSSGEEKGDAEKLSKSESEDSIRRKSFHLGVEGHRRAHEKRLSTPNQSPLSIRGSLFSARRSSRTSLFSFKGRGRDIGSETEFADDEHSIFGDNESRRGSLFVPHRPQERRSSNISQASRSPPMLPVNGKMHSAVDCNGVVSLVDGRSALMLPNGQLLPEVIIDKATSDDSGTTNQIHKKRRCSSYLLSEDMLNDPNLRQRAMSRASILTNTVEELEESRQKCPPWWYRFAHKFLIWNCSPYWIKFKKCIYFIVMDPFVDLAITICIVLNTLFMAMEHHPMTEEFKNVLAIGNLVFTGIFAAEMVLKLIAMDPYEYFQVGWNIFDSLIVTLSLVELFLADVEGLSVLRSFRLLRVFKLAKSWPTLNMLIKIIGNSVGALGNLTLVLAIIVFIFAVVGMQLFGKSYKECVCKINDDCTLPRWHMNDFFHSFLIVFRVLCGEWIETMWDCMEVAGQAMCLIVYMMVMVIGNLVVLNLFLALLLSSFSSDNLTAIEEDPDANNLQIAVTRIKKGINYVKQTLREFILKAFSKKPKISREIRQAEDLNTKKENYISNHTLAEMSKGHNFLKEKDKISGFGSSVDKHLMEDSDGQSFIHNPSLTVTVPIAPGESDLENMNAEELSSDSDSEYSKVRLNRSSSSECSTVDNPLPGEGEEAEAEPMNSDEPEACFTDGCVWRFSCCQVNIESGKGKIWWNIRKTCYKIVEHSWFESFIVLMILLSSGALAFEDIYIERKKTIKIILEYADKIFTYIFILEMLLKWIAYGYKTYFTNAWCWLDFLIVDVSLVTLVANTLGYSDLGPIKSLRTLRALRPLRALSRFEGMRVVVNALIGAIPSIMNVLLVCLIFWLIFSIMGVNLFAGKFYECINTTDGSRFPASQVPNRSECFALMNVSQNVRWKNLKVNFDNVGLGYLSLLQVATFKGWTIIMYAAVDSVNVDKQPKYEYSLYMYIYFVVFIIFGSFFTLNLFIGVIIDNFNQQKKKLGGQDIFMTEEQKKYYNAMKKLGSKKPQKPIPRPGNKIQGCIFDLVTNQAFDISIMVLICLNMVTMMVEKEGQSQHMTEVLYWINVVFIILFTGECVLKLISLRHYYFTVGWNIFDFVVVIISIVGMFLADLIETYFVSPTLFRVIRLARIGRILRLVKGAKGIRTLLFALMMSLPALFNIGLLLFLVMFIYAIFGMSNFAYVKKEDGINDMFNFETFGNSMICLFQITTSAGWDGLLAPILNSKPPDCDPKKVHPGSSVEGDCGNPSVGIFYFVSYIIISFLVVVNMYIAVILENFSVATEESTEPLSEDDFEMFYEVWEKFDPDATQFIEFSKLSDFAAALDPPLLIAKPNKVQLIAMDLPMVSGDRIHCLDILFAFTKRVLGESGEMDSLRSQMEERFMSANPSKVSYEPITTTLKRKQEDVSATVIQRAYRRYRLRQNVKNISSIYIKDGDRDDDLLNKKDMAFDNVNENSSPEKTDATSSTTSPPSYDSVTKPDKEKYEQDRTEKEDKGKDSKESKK
row,Structure (SMILES),IC50 [µM]
1,COc1cc(C(=O)N2CC[C@]3(c4cccc(Br)n4)OCOC3C2)ccc1OCCOC(F)(F)F (stereo partly drawn) [Compound 141],≤ 2
2,Cc1cc(C(=O)N2CC[C@]3(c4cscn4)OCOC3C2)ccc1OCCOC(F)(F)F (stereo partly drawn) [Compound 142],≤ 2
3,O=C(c1cccc2cccnc12)N1CCC2(c3ccccc3)CC2C1 (stereo not drawn) [Compound 143],≤ 2
4,Cc1nc([C@]23CCN(C(=O)c4ccc(OCCOC(F)(F)F)c(C)c4)CC2OCO3)cs1 (stereo partly drawn) [Compound 144],≤ 2
5,O=C(c1ccc(OCCOC(F)(F)F)c(Cl)c1)N1CC[C@]2(c3ncccc3F)OCOC2C1 (stereo partly drawn) [Compound 145],≤ 2
6,O=C(c1ccc(OCC2CC(F)(F)C2)c(Cl)c1)N1CC[C@]2(c3ccccn3)OCOC2C1 (stereo partly drawn) [Compound 146],≤ 2
7,COc1cc(C(=O)N2CCC3(c4ccccc4)CC3C2)ccc1C(C)(C)O (stereo not drawn) [Compound 147],≤ 2
8,COc1cc(C(=O)N2CC[C@@]3(c4ccccc4)OCOC3C2)ccc1OCCOC(F)(F)F (stereo partly drawn) [Compound 148],≤ 2
9,Cc1nc([C@]23CCN(C(=O)c4ccc(OCCOC(F)(F)F)c(Cl)c4)CC2OCO3)cs1 (stereo partly drawn) [Compound 149],≤ 2
10,COc1cc(C(=O)N2CC[C@]3(c4ccccc4)OCOC3C2)ccc1OCCOC(F)(F)F (stereo partly drawn) [Compound 150],≤ 2
11,COc1cc(C(=O)N2CCC3(c4ccccc4)CC3C2)ccc1OCCC(C)C (stereo not drawn) [Compound 151],≤ 2
12,Cc1cc(C(=O)N2CC[C@]3(c4ncccc4Cl)OCOC3C2)ccc1OCC(C)(C)F (stereo partly drawn) [Compound 152],≤ 2
13,COc1nc(C(=O)N2CC[C@]3(c4cc(C(F)(F)F)ccn4)OCOC3C2)ccc1OCCOC(F)(F)F (stereo partly drawn) [Compound 153],≤ 2
14,COc1cc(C(=O)N2CC[C@]3(c4cccc(C)n4)OCOC3C2)ccc1OCCOC(F)(F)F (stereo partly drawn) [Compound 154],≤ 2
15,COc1cc(C(=O)N2CC[C@]3(c4ncccc4Cl)OCOC3C2)ccc1OCCOC(F)(F)F (stereo partly drawn) [Compound 155],≤ 2
16,CC(Oc1ccc(C(=O)N2CC[C@]3(c4ccccn4)OCOC3C2)cc1Cl)C(F)(F)F (stereo partly drawn) [Compound 156],≤ 2
17,O=C(c1ccc(OCCOC(F)(F)F)c(Cl)c1)N1CC[C@]2(c3ccccn3)OCOC2C1 (stereo partly drawn) [Compound 157],≤ 2
18,COc1cc(C(=O)N2CCC3(c4ccccc4)CC3C2)ccc1OCC(C)(C)F (stereo not drawn) [Compound 158],≤ 2
19,[2H]C1([2H])OC2CN(C(=O)c3ccc(OCCOC(F)(F)F)c(OC)n3)CC[C@]2(c2ccccc2)O1 (stereo partly drawn) [Compound 159],≤ 2
20,Cc1nc(C(=O)N2CC[C@]3(c4ccccn4)OCOC3C2)ccc1OCCOC(F)(F)F (stereo partly drawn) [Compound 160],≤ 2
21,Cc1cc(C(=O)N2CC[C@]3(c4ccccc4)OCOC3C2)ccc1OCC(C)(C)F (stereo partly drawn) [Compound 161],≤ 2
22,COc1nc(C(=O)N2CC[C@]3(c4cccc(F)c4F)OCOC3C2)ccc1OCCOC(F)(F)F (stereo partly drawn) [Compound 162],≤ 2
23,COc1cc(C(=O)N2CC[C@]3(c4cc(F)ccc4F)OCOC3C2)ccc1OCCOC(F)(F)F (stereo partly drawn) [Compound 163],≤ 2

row,Structure (SMILES),IC50 [µM]
1,CC(COc1ccc(C(=O)N2CC[C@]3(c4ccccn4)OCOC3C2)cc1Cl)CC(F)(F)F (stereo partly drawn) [Compound 164],≤ 2
2,Cc1cc(C(=O)N2CC[C@]3(c4ccccn4)OCOC3C2)ccc1OCCOC(F)(F)F (stereo partly drawn) [Compound 165],≤ 2
3,O=C(c1ccc(OCC(F)(F)C(F)F)c(Cl)c1)N1CC[C@]2(c3ccccn3)OCOC2C1 (stereo partly drawn) [Compound 166],≤ 2
4,Cc1cc(C(=O)N2CC[C@]3(c4nccs4)OCOC3C2)ccc1OCCOC(F)(F)F (stereo partly drawn) [Compound 167],≤ 2
5,Cc1cc(C(=O)N2CC[C@@]3(c4nccs4)OCOC3C2)ccc1OCCOC(F)(F)F (stereo partly drawn) [Compound 168],≤ 2
6,COc1cc(C(=O)N2CC[C@]3(c4cccc(C(F)(F)F)n4)OCOC3C2)ccc1OCCOC(F)(F)F (stereo partly drawn) [Compound 169],≤ 2
7,COc1cc(C(=O)N2CC[C@]3(c4cccc(Cl)c4)OCOC3C2)ccc1OC(C)C(F)(F)F (stereo partly drawn) [Compound 170],≤ 2
8,Cc1cc(C(=O)N2CCC3(c4ccccc4)CC3C2)ccc1OCC(C)(C)O (stereo not drawn) [Compound 171],≤ 2
9,[2H]C1([2H])OC2CN(C(=O)c3ccc(OCC4CC(F)(F)C4)c(OC)c3)CC[C@]2(c2cc(F)cc(F)c2)O1 (stereo partly drawn) [Compound 172],≤ 2
10,[2H]C1([2H])OC2CN(C(=O)c3ccc(OC(C)C(F)(F)F)c(OC)c3)CC[C@]2(c2cc(F)cc(F)c2)O1 (stereo partly drawn) [Compound 173],≤ 2
11,[2H]C1([2H])OC2CN(C(=O)c3ccc(OCCOC(F)(F)F)c(OC)c3)CC[C@]2(c2cc(F)cc(F)c2)O1 (stereo partly drawn) [Compound 174],≤ 2
12,COc1nc(C(=O)N2CC[C@]3(c4cccc(Cl)c4)OCOC3C2)ccc1OCC1CC(F)(F)C1 (stereo partly drawn) [Compound 175],≤ 2
13,COc1cc(C(=O)N2CC[C@]3(c4cccc(Cl)c4)OCOC3C2)ccc1OCC1CC(F)(F)C1 (stereo partly drawn) [Compound 176],≤ 2
14,[2H]C1([2H])OC2CN(C(=O)c3ccc(OCC4CC(F)(F)C4)c(OC)c3)CC[C@]2(c2cccc(F)c2)O1 (stereo partly drawn) [Compound 177],≤ 2
15,COc1nc(C(=O)N2CCC3(c4ccccc4)CC3C2)ccc1OCCOC(F)(F)F (stereo not drawn) [Compound 178],≤ 2
16,COc1cc(C(=O)N2CC[C@]3(c4cc(C(F)(F)F)ccn4)OCOC3C2)ccc1OCCOC(F)(F)F (stereo partly drawn) [Compound 179],≤ 2
17,COc1nc(C(=O)N2CC[C@]3(c4cccc(F)c4)OCOC3C2)ccc1OCC1CC(F)(F)C1 (stereo partly drawn) [Compound 180],≤ 2
18,[2H]C1([2H])OC2CN(C(=O)c3ccc(OCCOC(F)(F)F)c(OC)c3)CC[C@]2(c2cccc(F)c2)O1 (stereo partly drawn) [Compound 181],≤ 2
19,Cc1cc(C(=O)N2CC[C@]3(c4ncccc4Cl)OCOC3C2)ccc1OCCOC(F)(F)F (stereo partly drawn) [Compound 182],≤ 2
20,COc1nc(C(=O)N2CC[C@]3(c4cccc(Cl)c4)OCOC3C2)ccc1OCCOC(F)(F)F (stereo partly drawn) [Compound 183],≤ 2
21,COc1cc(C(=O)N2CC[C@]3(c4cccc(F)c4F)OCOC3C2)ccc1OCC1CC(F)(F)C1 (stereo partly drawn) [Compound 184],≤ 2
22,COc1nc(C(=O)N2CC[C@]3(c4cccc(F)c4)OCOC3C2)ccc1OCC(F)(F)C(F)F (stereo partly drawn) [Compound 185],≤ 2
23,COc1cc(C(=O)N2CC[C@]3(c4cccc(F)c4F)OCOC3C2)ccc1OCCOC(F)(F)F (stereo partly drawn) [Compound 186],≤ 2

row,Structure (SMILES),IC50 [µM]
1,COc1cc(C(=O)N2CC[C@]3(c4cccc(F)c4F)OCOC3C2)ccc1OC(C)C(F)(F)F (stereo partly drawn) [Compound 187],≤ 2
2,COc1nc(C(=O)N2CC[C@]3(c4cccc(F)c4)OCOC3C2)ccc1OCCOC(F)(F)F (stereo partly drawn) [Compound 188],≤ 2
3,[2H]C1([2H])OC2CN(C(=O)c3ccc(OCCOC(F)(F)F)c(OC)n3)CC[C@]2(c2cccc(F)c2)O1 (stereo partly drawn) [Compound 189],≤ 2
4,COc1cccc([C@]23CCN(C(=O)c4ccc(OCCOC(F)(F)F)c(C)c4)CC2OCO3)n1 (stereo partly drawn) [Compound 190],≤ 2
5,Cc1nc(C(=O)N2CCC3(c4ccccc4)CC3C2)ccc1OCCOC(F)(F)F (stereo not drawn) [Compound 191],≤ 2
6,COc1cccc([C@]23CCN(C(=O)c4ccc(OCCOC(F)(F)F)c(OC)c4)CC2OCO3)n1 (stereo partly drawn) [Compound 192],≤ 2
7,COc1cc(C(=O)N2CC[C@]3(c4cccc(F)c4)OCOC3C2)ccc1OCC1CC(F)(F)C1 (stereo partly drawn) [Compound 193],≤ 2
8,Cc1cccc([C@]23CCN(C(=O)c4ccc(OCCOC(F)(F)F)c(C)c4)CC2OCO3)n1 (stereo partly drawn) [Compound 194],≤ 2
9,COc1cc(C(=O)N2CCC3(c4ccccc4)CC3C2)ccc1OCCOC(F)(F)F (stereo not drawn) [Compound 195],≤ 2
10,COc1nc(C(=O)N2CC[C@]3(c4cccc(F)c4)OCOC3C2)ccc1OCC1C2CC(F)(F)CC12 (stereo partly drawn) [Compound 196],≤ 2
11,COc1cc(C(=O)N2CC[C@]3(c4cc(C(F)(F)F)ccn4)OCOC3C2)ccc1OCC(F)(F)C(F)F (stereo partly drawn) [Compound 197],≤ 2
12,COc1cc(C(=O)N2CC[C@]3(c4cc(C(F)(F)F)ccn4)OCOC3C2)ccc1OCC1(C(F)(F)F)CC1 (stereo partly drawn) [Compound 198],≤ 2
13,COc1cc(C(=O)N2CC[C@]3(c4cccc(F)c4)OCOC3C2)ccc1N(C)CC1CC(F)(F)C1 (stereo partly drawn) [Compound 199],≤ 2
14,COc1nc(C(=O)N2CC[C@]3(c4cccc(F)c4)OCOC3C2)ccc1OCCC1CC(F)(F)C1 (stereo partly drawn) [Compound 200],≤ 2
15,O=C(c1ccc(OCCOC(F)(F)F)c(Cl)c1)N1CC[C@]2(c3ccccn3)COC2C1 (stereo partly drawn) [Compound 201],≤ 2
16,O=C(c1ccc(OCCOC(F)(F)F)c(Cl)c1)N1CC[C@@]2(c3ccccn3)COC2C1 (stereo partly drawn) [Compound 202],≤ 2
17,COc1ccnc([C@]23CCN(C(=O)c4ccc(OCC5CC(F)(F)C5)c(OC)c4)CC2OCO3)c1 (stereo partly drawn) [Compound 203],≤ 2
18,COc1cc(C(=O)N2CC[C@]3(c4cc(C(F)(F)F)ccn4)OCOC3C2)ccc1OCC1CCC(F)(F)C1 (stereo partly drawn) [Compound 204],≤ 2
19,CC(C)(F)COc1ccc(C(=O)N2CC[C@@]3(c4ccccn4)CO[C@H]3C2)cc1C(F)(F)F [Compound 205],> 5
20,Cc1cc(C(=O)N2CC[C@@]3(c4ccccn4)COC3C2)ccc1OCCOC(F)(F)F (stereo partly drawn) [Compound 206],≤ 2
21,O=C(c1ccc(OCC2(C(F)(F)F)CC2)c(Cl)c1)N1CC[C@]2(c3ccccn3)COC2C1 (stereo partly drawn) [Compound 207],≤ 2
22,O=C(c1ccc(OCC2CC(F)(F)C2)c(Cl)c1)N1CC[C@@]2(c3ccccn3)COC2C1 (stereo partly drawn) [Compound 208],≤ 2
23,COc1nc(C(=O)N2CC[C@@]3(c4ccccn4)COC3C2)ccc1OCC(F)(F)C(F)F (stereo partly drawn) [Compound 209],≤ 2
